Experimental data taken from paper PMC8657898, “Cytokinin Perception in Ancient Plants beyond Angiospermae” (International Journal of Molecular Sciences, 2021).
Like-named read-outs stand apart in the source and are kept apart here.

Tests used:
[1] = biological target: T1, PpCHK1 (Physcomitrium patens, UniProt A0A068JFF6); assay: competition of unlabeled CKs with 3H-iP, tobacco leaf microsomes expressing the receptor; type: binding
[2] = biological target: T2, PpCHK2 (Physcomitrium patens, UniProt A0A068JG96); assay: as above; type: binding
T2 sequence (A0A068JG96 entry or part of it): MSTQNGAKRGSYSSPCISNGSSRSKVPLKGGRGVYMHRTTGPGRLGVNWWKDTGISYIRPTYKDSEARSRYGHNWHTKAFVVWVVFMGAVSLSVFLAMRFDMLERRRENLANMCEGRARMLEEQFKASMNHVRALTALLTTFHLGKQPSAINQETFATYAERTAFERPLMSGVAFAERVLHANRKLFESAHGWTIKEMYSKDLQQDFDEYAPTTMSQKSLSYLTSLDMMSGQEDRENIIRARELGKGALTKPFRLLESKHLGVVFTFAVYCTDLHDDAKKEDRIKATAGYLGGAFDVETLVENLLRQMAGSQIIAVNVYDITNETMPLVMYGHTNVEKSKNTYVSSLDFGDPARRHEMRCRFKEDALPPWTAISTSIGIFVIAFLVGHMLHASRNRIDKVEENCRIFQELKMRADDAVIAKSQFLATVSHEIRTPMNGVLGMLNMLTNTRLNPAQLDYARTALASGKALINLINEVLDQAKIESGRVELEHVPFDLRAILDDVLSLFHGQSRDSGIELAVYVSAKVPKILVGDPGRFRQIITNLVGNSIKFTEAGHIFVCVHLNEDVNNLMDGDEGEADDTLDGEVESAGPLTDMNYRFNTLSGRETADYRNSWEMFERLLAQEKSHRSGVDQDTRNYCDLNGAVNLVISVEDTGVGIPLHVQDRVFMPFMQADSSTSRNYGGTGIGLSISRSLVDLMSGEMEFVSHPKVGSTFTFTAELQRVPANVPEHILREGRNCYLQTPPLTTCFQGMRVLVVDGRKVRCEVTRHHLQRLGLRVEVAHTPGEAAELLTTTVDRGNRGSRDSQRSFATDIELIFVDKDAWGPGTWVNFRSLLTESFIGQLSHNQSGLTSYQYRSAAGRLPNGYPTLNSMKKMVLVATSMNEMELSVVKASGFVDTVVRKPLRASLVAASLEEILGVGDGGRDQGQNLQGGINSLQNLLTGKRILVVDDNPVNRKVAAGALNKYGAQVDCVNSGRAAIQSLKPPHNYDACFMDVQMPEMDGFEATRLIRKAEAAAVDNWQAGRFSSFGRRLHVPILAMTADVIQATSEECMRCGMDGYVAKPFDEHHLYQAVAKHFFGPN

[3] = system: PpCHK3; conditions: previous data; cited from earlier work
[4] = biological target: PaCHK2; assay: competition of unlabeled CKs with 3H-iP, tobacco leaf microsomes expressing the receptor; type: binding, Picea abies
[5] = system: PaCHK1; assay: as above; type: binding, Picea abies
[6] = biological target: T3, SmCHK4a (Selaginella moellendorffii, UniProt D8R9F4); assay: as above; type: binding
T3 sequence (D8R9F4 entry or part of it): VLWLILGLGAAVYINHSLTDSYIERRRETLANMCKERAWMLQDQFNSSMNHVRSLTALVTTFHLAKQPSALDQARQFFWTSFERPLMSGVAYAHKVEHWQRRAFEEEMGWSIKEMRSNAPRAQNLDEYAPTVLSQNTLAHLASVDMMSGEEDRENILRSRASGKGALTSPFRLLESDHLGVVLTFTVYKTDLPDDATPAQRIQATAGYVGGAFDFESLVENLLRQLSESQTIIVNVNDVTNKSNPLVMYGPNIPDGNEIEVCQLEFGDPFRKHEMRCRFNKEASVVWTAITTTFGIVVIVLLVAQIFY

[7] = biological target: T4, SmCHK6 (Selaginella moellendorffii, UniProt D8SUD5); assay: as above; type: binding
T4 sequence (D8SUD5 entry or part of it): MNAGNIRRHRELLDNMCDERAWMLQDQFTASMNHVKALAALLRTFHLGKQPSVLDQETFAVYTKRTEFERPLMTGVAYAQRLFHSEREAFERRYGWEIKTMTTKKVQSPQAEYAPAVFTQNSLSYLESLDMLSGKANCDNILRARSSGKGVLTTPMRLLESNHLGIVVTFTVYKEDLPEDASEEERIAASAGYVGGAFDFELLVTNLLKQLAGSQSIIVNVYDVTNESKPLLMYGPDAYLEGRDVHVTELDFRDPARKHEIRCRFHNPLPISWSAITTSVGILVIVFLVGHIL

[8] = system: AHK3; conditions: AHK3 from A. thaliana; cited from earlier work
[9] = biological target: T1, PpCHK1; assay: direct 3H-iP binding (saturation, pH dependence), tobacco leaf microsomes; conditions: saturation curve of 3H-iP specific binding
[10] = system: PpCHK3; assay: specific binding of 3H-iP, tobacco leaf microsomes; set-up: species or system Physcomitrium patens; conditions: PpCHK3 sensory module; expression confirmed by immunoblotting
Experimental: (§1) We experimentally analyzed the ligand-binding properties of CHK receptors from P. patens, S. moellendorffii, and P. abies using a radiolabeled ligand method and microsomes from tobacco leaves where these receptors were transiently expressed. Tritiated isopentenyladenine served as the labeled CK. PpCHK1 and 2 proteins from P. patens were tested in a full-length version, and otherwise sensory modules (SMs) flanked by TM helices were used. PpCHK1-3 represented canonical CHK receptor group, while PpCHK4 was a representative of the related sister group. […]
(§2) Of the eight cloned receptors, we detected no CK binding for PpCHK3 and PpCHK4, although expression of these proteins was confirmed by immunoblotting against the fused GFP domain (Figure 2). […]
(§3) pK7WGF2 and pB7FWG2 constructs were transformed to Agrobacterium tumefaciens strain GV3101 and transiently expressed in Nicotiana benthamiana leaves. […] Transient expression was assessed by means of immunoblotting of microsomal membranes with antibodies against GFP (Agrisera, AS15 2987) diluted 1:5000 as described in [15]. Background binding of ^3H-iP by endogenous CK receptors of N. benthamiana was assessed in control probes using microsomes from untreated leaves (Figure 2). […]

[11] = system: PpCHK4; assay: specific binding of 3H-iP, tobacco leaf microsomes; set-up: species or system Physcomitrium patens; conditions: PpCHK4 sensory module; expression confirmed by immunoblotting
Experimental: as §1, §2, §3

[12] = biological target: T2, PpCHK2; assay: direct 3H-iP binding (saturation, pH dependence), tobacco leaf microsomes; conditions: saturation curve of 3H-iP specific binding
[13] = biological target: T3, SmCHK4a; assay: as above; conditions: saturation curve of 3H-iP specific binding
[14] = biological target: PaCHK2; assay: as above; set-up: species or system Picea abies; conditions: saturation curve of 3H-iP specific binding
[15] = biological target: PaCHK1; assay: as above; set-up: species or system Picea abies; conditions: saturation curve of 3H-iP specific binding
[16] = biological target: T4, SmCHK6; assay: as above; conditions: saturation curve of 3H-iP specific binding
[17] = PpCHK1, competition with 3H-iP, Cheng-Prusoff calculation method, ± SE, read-out: KD of CK-Receptor Complexes
[18] = PpCHK1, competition with 3H-iP, alternative calculation method (Appendix A), ± SE, read-out: KD of CK-receptor complexes
[19] = PpCHK2, competition with 3H-iP, Cheng-Prusoff calculation method, ± SE, read-out: KD of CK-Receptor Complexes
[20] = PpCHK2, competition with 3H-iP, alternative calculation method (Appendix A), ± SE, read-out: KD of CK-receptor complexes
[21] = read-out: KD of CK-Receptor Complexes
[22] = read-out: KD of CK-receptor complexes
[23] = PaCHK2, competition with 3H-iP, Cheng-Prusoff calculation method, ± SE, read-out: KD of CK-Receptor Complexes
[24] = PaCHK2, competition with 3H-iP, alternative calculation method (Appendix A), ± SE, read-out: KD of CK-receptor complexes
[25] = SmCHK4a, competition with 3H-iP, Cheng-Prusoff calculation method, ± SE, read-out: KD of CK-Receptor Complexes
[26] = SmCHK4a, competition with 3H-iP, alternative calculation method (Appendix A), ± SE, read-out: KD of CK-receptor complexes
[27] = PaCHK1, competition with 3H-iP, Cheng-Prusoff calculation method, ± SE, read-out: KD of CK-Receptor Complexes
[28] = PaCHK1, competition with 3H-iP, alternative calculation method (Appendix A), ± SE, read-out: KD of CK-receptor complexes
[29] = SmCHK6, competition with 3H-iP, Cheng-Prusoff calculation method, ± SE, read-out: KD of CK-Receptor Complexes
[30] = SmCHK6, competition with 3H-iP, alternative calculation method (Appendix A), ± SE, read-out: KD of CK-receptor complexes
[31] = KD for PaCHK1 divided by KD for PaCHK2, Table 1 values

T1 sequence (A0A068JFF6 entry or part of it): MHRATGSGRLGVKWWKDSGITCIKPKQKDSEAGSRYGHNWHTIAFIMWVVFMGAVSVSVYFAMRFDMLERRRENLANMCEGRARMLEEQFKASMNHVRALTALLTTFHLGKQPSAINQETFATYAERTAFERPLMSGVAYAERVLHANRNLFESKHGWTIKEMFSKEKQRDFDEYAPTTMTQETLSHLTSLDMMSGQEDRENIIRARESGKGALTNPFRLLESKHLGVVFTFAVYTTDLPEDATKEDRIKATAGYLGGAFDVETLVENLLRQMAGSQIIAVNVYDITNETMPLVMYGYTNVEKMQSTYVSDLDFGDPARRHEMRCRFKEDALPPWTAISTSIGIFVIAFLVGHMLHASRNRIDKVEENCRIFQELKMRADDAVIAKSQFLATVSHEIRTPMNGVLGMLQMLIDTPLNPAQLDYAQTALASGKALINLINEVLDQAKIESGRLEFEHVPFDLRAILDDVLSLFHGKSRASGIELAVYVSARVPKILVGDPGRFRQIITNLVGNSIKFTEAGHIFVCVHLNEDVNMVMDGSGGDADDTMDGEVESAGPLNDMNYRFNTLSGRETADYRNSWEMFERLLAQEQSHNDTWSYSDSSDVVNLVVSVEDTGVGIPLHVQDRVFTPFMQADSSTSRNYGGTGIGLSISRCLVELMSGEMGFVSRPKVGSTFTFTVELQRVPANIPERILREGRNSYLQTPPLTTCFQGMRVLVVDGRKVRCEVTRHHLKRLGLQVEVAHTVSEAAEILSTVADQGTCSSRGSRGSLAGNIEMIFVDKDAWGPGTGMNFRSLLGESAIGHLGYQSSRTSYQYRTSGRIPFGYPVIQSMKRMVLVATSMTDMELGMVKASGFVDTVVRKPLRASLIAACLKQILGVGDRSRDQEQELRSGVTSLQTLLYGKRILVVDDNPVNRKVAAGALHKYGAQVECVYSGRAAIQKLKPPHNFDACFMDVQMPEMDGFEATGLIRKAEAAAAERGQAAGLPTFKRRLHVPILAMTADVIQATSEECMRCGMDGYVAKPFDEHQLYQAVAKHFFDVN

SMILES | Kd [1, 17] | Kd [1, 18] | Kd [2, 19] | Kd [2, 20] | Kd [4, 21] | Kd [4, 22] | PaCHK1/CHK2 affinity ratio (KD1/KD2) [5] | Kd [5, 21] | Kd [5, 22] | Kd [4, 23] | Kd [4, 24] | Kd [6, 25] | Kd [6, 26] | Kd [5, 27] | Kd [5, 28] | Kd [7, 29] | Kd [7, 30] | PaCHK1/CHK2 affinity ratio (KD1/KD2) [5, 31] | also measured
C/C(=C\CNc1ncnc2[nH]cnc12)CO [tZ, trans-zeatin] | 36.9 ± 2 nM | 24.8 ± 2.9 nM | 18.1 ± 1.5 nM | 12.4 ± 1.5 nM | 1.05 ± 0.09 nM | 1.3 ± 0.4 nM | 7.21 | 7.57 ± 0.37 nM | 5.9 ± 1 nM |  |  |  |  |  |  |  |  |  | PpCHK1/CHK2 affinity ratio (KD1/KD2) ([1]; microsomes): 2.04; binding of labeled tZ [3]: lacks the ability to bind
c1ccc(CNc2ncnc3nc[nH]c23)cc1 [BA, benzyladenine] | 13.9 ± 0.1 nM | 12.8 ± 3 nM | 10.7 ± 0.5 nM | 14.9 ± 1.2 nM |  |  |  |  |  | 13.5 ± 1.6 nM | 12.3 ± 3.9 nM | 6.91 ± 0.34 nM | 3.2 ± 0.8 nM | 61.9 ± 1.3 nM | 38.4 ± 2.6 nM | 2.28 ± 0.7 nM | 2.9 ± 0.4 nM |  | 
CC(CO)CCNc1ncnc2nc[nH]c12 (stereo not drawn) [DZ, dihydrozeatin] | 507 ± 42 nM | 676 ± 14.4 nM | 323 ± 97 nM | 501 ± 74.7 nM |  |  |  |  |  | 22.4 ± 2.9 nM | 29.1 ± 5.4 nM |  |  | 377 ± 27 nM | 244 ± 25.9 nM |  |  | 16.8 | 
C/C(=C/CNc1ncnc2nc[nH]c12)CO [cZ, cis-zeatin] |  |  |  |  | 17.9 ± 2.9 nM | 22.7 ± 3.2 nM | 23.4 | 419 ± 56 nM | 286 ± 69.4 nM |  |  |  |  |  |  |  |  |  | PpCHK1/CHK2 affinity ratio (KD1/KD2) [1]: 3.01; cZ/tZ KD ratio [1]: 2.79; Kd [1, 21]: 103 ± 15 nM; Kd [1, 22]: 94.4 ± 26.3 nM; cZ/tZ KD ratio [2]: 1.89; Kd [2, 21]: 34.2 ± 9.3 nM; Kd [2, 22]: 48.6 ± 9.7 nM; cZ/tZ KD ratio [4]: 17.0; cZ/tZ KD ratio [6]: 2.58; Kd [6, 21]: 20.6 ± 2.6 nM; Kd [6, 22]: 20 ± 4.9 nM; cZ/tZ KD ratio (affinity for tZ exceeds that for cZ) [8]: 376 folds; cZ/tZ KD ratio [5]: 55.4; Kd [7, 21]: 16.6 ± 2.4 nM; Kd [7, 22]: 39 ± 5.1 nM
O=C(Nc1ccccc1)Nc1cnns1 [TD, thidiazuron] | 23.8 ± 5.4 nM |  | 13 ± 0.2 nM | 11.9 ± 2.8 nM |  |  |  |  |  | 64.5 ± 6.4 nM | 244 ± 94.8 nM |  |  | 6.7 ± 0.21 nM | 3.8 ± 0.6 nM |  |  | 0.1 | PpCHK1/CHK2 affinity ratio (KD1/KD2) ([1]; KD for PpCHK1 divided by KD for PpCHK2, Table 1 values): 1.83
CC(C)=CCNc1ncnc2nc[nH]c12 [iP, isopentenyladenine] |  | 1.2 ± 0.3 nM |  | 0.9 nM |  |  |  |  |  | 2.2 ± 0.08 nM |  | 1.6 ± 0.13 nM | 0.8 ± 0.2 nM | 3.6 ± 0.17 nM | 3 ± 0.7 nM | 1.7 ± 0.16 nM | 2.5 ± 0.8 nM |  | Kd [9]: 1.59 nM; binding of labeled iP [10]: did not recognize; binding of labeled iP [11]: did not recognize; Kd [12]: 1.45 nM; Kd [13]: 1.56 nM; Kd [14]: 2.03 nM; Kd [15]: 3.89 nM; Kd [16]: 1.75 nM
